# Data as given in patent publication US10597388B2, “Pyridazinone herbicides” (FMC CORPORATION, priority 2014, dated 2020).
# Columns and labels:
# Experiment in all cases: Test D controlled growth environment herbicide test, pre- and postemergence
# Format in all cases: in vivo
# [1] = system: oat, wild (wild oat, Avena fatua)
# Excerpt: (§1) Seeds of plant species selected from bluegrass (annual bluegrass, Poa annua), blackgrass (Alopecurus myosuroides), Canada thistle (Cirsium arvense), canarygrass (Phalaris minor), chickweed (common chickweed, Stellaria media), geranium, cutleaf (cutleaf geranium, Geranium dissectum), galium (catchweed bedstraw, Galium aparine), bromegrass, downy (downy bromegrass, Bromus tectorum), field poppy (Papaver rhoeas), field violet (Viola arvensis), foxtail, green (green foxtail, Setaria viridis), deadnettle (henbit deadnettle, Lamium amplexicaule), ryegrass, Italian (Italian ryegrass, Lolium multiflorum), kochia (Kochia scoparia), lambsquarters (Chenopodium album), oilseed rape (Brassica napus), pigweed (Amaranthus retroflexus), chamomile (scentless chamomile, Matricaria inodora), Russian thistle (Salsola kali), speedwell (bird's-eye speedwell, Veronica persica), barley, spring (spring barley, Hordeum vulgare), wheat, spring (spring wheat, Triticum aestivum), buckwheat, wild (wild buckwheat, Polygonum convolvulus), mustard, wild (wild mustard, Sinapis arvensis), oat, wild (wild oat, Avena fatua), radish, wild (wild radish, Raphanus raphanistrum), windgrass (Apera spica-venti), barley, winter (winter barley, Hordeum vulgare), and wheat, winter (winter wheat, Triticum aestivum) were planted into a silt loam soil and treated preemergence with test chemicals formulated in a non-phytotoxic solvent mixture which included a surfactant.
# (§2) At the same time, these species were planted in pots containing Redi-Earth® planting medium (Scotts Company, 14111 Scottslawn Road, Marysville, Ohio 43041) comprising spaghnum peat moss, vermiculite, wetting agent and starter nutrients and treated with postemergence applications of the test chemicals formulated in the same manner. Plants ranged in height from 2 to 18 cm (1- to 4-leaf stage). Treated plants and controls were maintained in a controlled growth environment for 14 to 21 d after which time all species were compared to controls and visually evaluated. Plant response ratings, summarized in Table D, are based on a scale of 0 to 100 where 0 is no effect and 100 is complete control. A dash (-) response means no test result.
# [2] = system: blackgrass (Alopecurus myosuroides)
# Excerpt: as §1, §2
# [3] = system: chamomile (scentless chamomile, Matricaria inodora); conditions: Preemergence
# Excerpt: as §1, §2
# [4] = system: lambsquarters (Chenopodium album)
# Excerpt: as §1, §2
# [5] = system: foxtail, green (green foxtail, Setaria viridis)
# Excerpt: as §1, §2
# [6] = system: barley, winter (winter barley, Hordeum vulgare)
# Excerpt: as §1, §2
# [7] = system: chickweed (common chickweed, Stellaria media)
# Excerpt: as §1, §2
# [8] = system: windgrass (Apera spica-venti)
# Excerpt: as §1, §2
# [9] = system: wheat, winter (winter wheat, Triticum aestivum)
# Excerpt: as §1, §2
# [10] = system: pigweed (Amaranthus retroflexus)
# Excerpt: as §1, §2
# [11] = system: field poppy (Papaver rhoeas)
# Excerpt: as §1, §2
# [12] = system: wheat, spring (spring wheat, Triticum aestivum)
# Excerpt: as §1, §2
# [13] = system: mustard, wild (wild mustard, Sinapis arvensis)
# Excerpt: as §1, §2
# [14] = system: bromegrass, downy (downy bromegrass, Bromus tectorum)
# Excerpt: as §1, §2
# [15] = Postemergence, 31 g ai/ha, scale 0 to 100 (0 no effect, 100 complete control)
# [16] = Postemergence, 125 g ai/ha, visual rating on scale 0 (no effect) to 100 (complete control), 14 to 21 d
# [17] = Postemergence, 250 g ai/ha, scale 0 to 100 (0 no effect, 100 complete control)
# [18] = Preemergence, 62 g ai/ha, scale 0 to 100 (0 no effect, 100 complete control)
# [19] = Preemergence, 125 g ai/ha, scale 0 to 100 (0 no effect, 100 complete control)
# [20] = Preemergence, 250 g ai/ha, scale 0 to 100, 0 no effect, 100 complete control
# [21] = postemergence, 62 g ai/ha, scale 0 to 100, 0 no effect, 100 complete control
structure (smiles),measurement,setting,value
CCc1sc2ccc(C)cc2c1-c1c(O)c(C)nn(C)c1=O [Compound 47],"Oat, Wild plant response rating",[1]; [15],10
same,"Plant response rating, Oat, Wild",[1]; [16],20
same,"Plant response rating, Oat, Wild",[1]; [17],40
same,"Plant response rating (scale of 0 to 100), Oat, Wild","[1]; Preemergence, 31 g ai/ha",10
same,"Plant response rating, Oat, Wild",[1]; [18],20
same,"Plant response rating, Oat, Wild",[1]; [19],35
same,"Plant response rating, Oat, Wild",[1]; [20],40
same,"Plant response rating, Oat, Wild",[1]; [21],15
same,Blackgrass plant response rating,[2]; [15],25
same,"Plant response rating, Blackgrass",[2]; [16],35
same,"Plant response rating, Blackgrass",[2]; [17],65
same,"Plant response rating (scale of 0 to 100), Blackgrass","[2]; Preemergence, 31 g ai/ha",5
same,"Plant response rating, Blackgrass",[2]; [18],20
same,"Plant response rating, Blackgrass",[2]; [19],30
same,Blackgrass plant response rating,[2]; [20],50
same,"Plant response rating, Blackgrass",[2]; [21],25
same,"Plant response rating (scale of 0 to 100), Chamomile",[3]; 31 g ai/ha,80
same,"Plant response rating, Chamomile","[3]; 62 g ai/ha, scale 0 to 100 (0 no effect, 100 complete control)",80
same,"Plant response rating, Chamomile","[3]; 125 g ai/ha, scale 0 to 100 (0 no effect, 100 complete control)",85
same,"Plant response rating, Chamomile","[3]; 250 g ai/ha, scale 0 to 100, 0 no effect, 100 complete control",85
same,Lambsquarters plant response rating,[4]; [15],45
same,"Plant response rating, Lambsquarters",[4]; [16],70
same,"Plant response rating, Lambsquarters",[4]; [17],70
same,"Plant response rating (scale of 0 to 100), Lambsquarters","[4]; Preemergence, 31 g ai/ha",100
same,"Plant response rating, Lambsquarters",[4]; [18],100
same,"Plant response rating, Lambsquarters",[4]; [19],100
same,"Plant response rating, Lambsquarters",[4]; [20],100
same,"Plant response rating, Lambsquarters",[4]; [21],50
same,"Foxtail, Green plant response rating",[5]; [15],50
same,"Plant response rating, Foxtail, Green",[5]; [16],70
same,"Plant response rating, Foxtail, Green",[5]; [17],80
same,"Plant response rating (scale of 0 to 100), Foxtail, Green","[5]; Preemergence, 31 g ai/ha",0
same,"Plant response rating, Foxtail, Green",[5]; [18],25
same,"Plant response rating, Foxtail, Green",[5]; [19],60
same,"Plant response rating, Foxtail, Green",[5]; [20],100
same,"Plant response rating, Foxtail, Green",[5]; [21],60
same,"Barley, Winter plant response rating",[6]; [15],10
same,"Plant response rating, Barley, Winter",[6]; [16],15
same,"Plant response rating, Barley, Winter",[6]; [17],15
same,"Plant response rating (scale of 0 to 100), Barley, Winter","[6]; Preemergence, 31 g ai/ha",0
same,"Plant response rating, Barley, Winter",[6]; [18],0
same,"Plant response rating, Barley, Winter",[6]; [19],5
same,"Barley, Winter plant response rating",[6]; [20],10
same,"Plant response rating, Barley, Winter",[6]; [21],10
same,Chickweed plant response rating,[7]; [15],90
same,"Plant response rating, Chickweed",[7]; [16],95
same,"Plant response rating, Chickweed",[7]; [17],100
same,"Plant response rating (scale of 0 to 100), Chickweed","[7]; Preemergence, 31 g ai/ha",90
same,"Plant response rating, Chickweed",[7]; [18],95
same,"Plant response rating, Chickweed",[7]; [19],100
same,"Plant response rating, Chickweed",[7]; [20],90
same,"Plant response rating, Chickweed",[7]; [21],95
same,Windgrass plant response rating,[8]; [15],10
same,"Plant response rating, Windgrass",[8]; [16],15
same,"Plant response rating, Windgrass",[8]; [17],15
same,"Plant response rating (scale of 0 to 100), Windgrass","[8]; Preemergence, 31 g ai/ha",5
same,"Plant response rating, Windgrass",[8]; [18],5
same,"Plant response rating, Windgrass",[8]; [19],20
same,"Plant response rating, Windgrass",[8]; [20],75
same,"Plant response rating, Windgrass",[8]; [21],10
same,"Wheat, Winter plant response rating",[9]; [15],5
same,"Plant response rating, Wheat, Winter",[9]; [16],10
same,"Plant response rating, Wheat, Winter",[9]; [17],5
same,"Plant response rating (scale of 0 to 100), Wheat, Winter","[9]; Preemergence, 31 g ai/ha",5
same,"Plant response rating, Wheat, Winter",[9]; [18],5
same,"Plant response rating, Wheat, Winter",[9]; [19],10
same,"Plant response rating, Wheat, Winter",[9]; [20],10
same,"Plant response rating, Wheat, Winter",[9]; [21],5
same,Pigweed plant response rating,[10]; [15],75
same,"Plant response rating, Pigweed",[10]; [16],100
same,"Plant response rating, Pigweed",[10]; [17],100
same,"Plant response rating (scale of 0 to 100), Pigweed","[10]; Preemergence, 31 g ai/ha",70
same,"Plant response rating, Pigweed",[10]; [18],100
same,"Plant response rating, Pigweed",[10]; [19],100
same,"Plant response rating, Pigweed",[10]; [20],100
same,"Plant response rating, Pigweed",[10]; [21],75
same,Field Poppy plant response rating,[11]; [15],80
same,"Plant response rating, Field Poppy",[11]; [16],100
same,"Plant response rating, Field Poppy",[11]; [17],100
same,"Plant response rating (scale of 0 to 100), Field Poppy","[11]; Preemergence, 31 g ai/ha",60
same,"Plant response rating, Field Poppy",[11]; [18],100
same,"Plant response rating, Field Poppy",[11]; [19],100
same,"Plant response rating, Field Poppy",[11]; [20],100
same,"Plant response rating, Field Poppy",[11]; [21],100
same,"Wheat, Spring plant response rating",[12]; [15],10
same,"Plant response rating, Wheat, Spring",[12]; [16],15
same,"Plant response rating, Wheat, Spring",[12]; [17],15
same,"Plant response rating (scale of 0 to 100), Wheat, Spring","[12]; Preemergence, 31 g ai/ha",5
same,"Plant response rating, Wheat, Spring",[12]; [18],5
same,"Plant response rating, Wheat, Spring",[12]; [19],15
same,"Plant response rating, Wheat, Spring",[12]; [20],15
same,"Plant response rating, Wheat, Spring",[12]; [21],10
same,"Mustard, Wild plant response rating",[13]; [15],0
same,"Plant response rating, Mustard, Wild",[13]; [16],15
same,"Plant response rating, Mustard, Wild",[13]; [17],25
same,"Plant response rating (scale of 0 to 100), Mustard, Wild","[13]; Preemergence, 31 g ai/ha",10
same,"Plant response rating, Mustard, Wild",[13]; [18],20
same,"Plant response rating, Mustard, Wild",[13]; [19],40
same,"Plant response rating, Mustard, Wild",[13]; [20],65
same,"Plant response rating, Mustard, Wild",[13]; [21],0
same,"Bromegrass, Downy plant response rating",[14]; [15],5
same,"Plant response rating, Bromegrass, Downy",[14]; [16],5
same,"Plant response rating, Bromegrass, Downy",[14]; [17],5
same,"Plant response rating (scale of 0 to 100), Bromegrass, Downy","[14]; Preemergence, 31 g ai/ha",5
same,"Plant response rating, Bromegrass, Downy",[14]; [18],10
same,"Plant response rating, Bromegrass, Downy",[14]; [19],15
same,"Plant response rating, Bromegrass, Downy",[14]; [20],15
same,"Plant response rating, Bromegrass, Downy",[14]; [21],0
